Assay results as given in patent publication US12559696B2, “Amine containing aqueous fluids and method of producing same” (Illinois Tool Works Inc., priority 2023, dated 2026).

Legend:
microbial growth = test: Biological testing according to ASTM E2275; format: cell-based; conditions: 3-amino-4-octanol in solution at 6 total weight percent at higher
Description: The solutions of Examples 1 and 3 and Comparative Examples A and B are subjected to biological testing according to ASTM E2275.

[1] = standard temperature and pressure (STP); cited from earlier work

CCCCC(O)C(N)CC (centres unmarked) [3-amino-4-octanol]
resistance to microbial growth (microbial growth): enhanced resistant to microbial growth | solubility of 3-amino-4-octanol in water [1]: about 4.5 percent by weight
